The source of these data is patent US12421206B2, “Aryl-n-aryl derivatives for treating a RNA virus infection” (ABIVAX, priority 2018, dated 2025).

The term inhibition denotes the relative decrease from the control value, in per cent. As a reminder, the EC50 is the concentration giving half of the maximal effect. Broadly, the IC50 is the concentration at which inhibition is half-maximal.

For experiment [1], the system named is Chikungunya Virus (CHIKV) strain LR2006-OPY1 with GFP modification (CHIK 5'LR). Put plainly: microbe, parasite or virus in culture. It is filed as cell-based. Particulars: HEK-293T, infected HEK293T cells; for inhibition at 1 µM: compounds at 1 μM, MOI 0.1, 22 h, mean of 2 experiments, values above 100 lowered to 100, read-out: % CHIKV Inhibition Mean (n = 2); for IC50: second round of experiments, range stated for listed compounds, read-out: IC50 (CHIKV inhibition). As for the experimental part: The ability of the compounds to inhibit viral replication was assessed with an experiment in which infected cells were treated by compounds of formula (Ie) at 1 μM. As a positive control for inhibition of Chikungunya, Ribavirin was used. Toxicity of the compounds was assessed in parallel.
Human embryonic kidney cells 293T (HEK293T, CRL-11268) were maintained in Dulbecco's modified Eagle's Medium (DMEM, 31966-021, Thermo Fisher Scientific) supplemented with 10% of fetal bovine serum (FBS), penicillin and streptomycin. After removal of the medium, cells were washed with Ca^2+ and Mg^2+-free salt solution to remove all traces of serum. After aspiration of wash solution, cells were dissociated with 0.25% Trypsin-EDTA solution and incubated 30 s at least in 37° C. incubator. Concentration of cell suspension was determined by an automatic cell counter (EVE, NanoEntek) and, if needed, adjusted to 0.33×10^6 cells/mL with DMEM medium supplemented with 10% FBS.
100 μL of the cell suspension were dispatched in a ViewPlate-96 Black (6005182, PerkinElmer) and in a transparent 96-well cell culture plate (655180, Greiner bio-one). After an incubation for 24 h at 37° C. under 5% of CO2, compounds were added at the proper concentration.
An intermediate dilution was prepared with DMSO (D8418, Sigma) at 2 mM in a 96-well V-bottom microplate from the stock solution:
Mix 1 μL of the 50 mM stock library in 25 μL of DMSO.
Mix 2 μL of the 25 mM stock library in 25 μL of DMSO.
An intermediate dilution was prepared with DMSO (D8418, Sigma) at 25 mM in a 96-well V-bottom microplate from the stock solution:
Mix 2 μL of the 50 mM stock library in 2 μL of DMSO.
Perform serial dilution in 2 μL of DMSO 13 times to reach 0.0015 mM. Proceed as follows in table III:
For both screen and determination of IC50, 1 μL of each solution was added in a 1 mL Masterblock 96 wells (Greiner bio-one, 780261) containing 1 mL of DMEM medium. As a positive control, 5 μL of a 80 mM Ribavirin solution (R9644, Sigma) is added to 1 mL of DMEM. On the other hand, DMSO is used as a negative control.
[…]. Vector Borne Zoonotic Dis. 2006; 6(4)). This modified virus was used to infect cells at MOI 0.1. […].
Medium was removed after 22 h at 37° C. under 5% of CO2 and cells were washed as described above. 60 μL of RIPA buffer (50 mM Tris-HCl pH8, 100 mM NaCl, 1 mM MgCl2, 1% Triton X-100) was added to cells and incubated for at least 20 min before reading fluorescence signal. Pierce 660 nm Protein Assay Reagent (22660, Thermo scientific) was used to normalize fluorescence signal by protein quantity.
• A first round of experiments has been performed wherein the results are expressed as inhibition percentage, which is calculated as follows, through the following steps: • 1. Fluorescence intensity (FI)/Absorbance 660 nm (A660)=A
This ratio allows considering the infection (GFP virus) to the protein amount. • 2. A′=A−background noise of non-infected plate, • 3. B=Fluorescence intensity (FI)/Absorbance 660 nm (A660) of infected but non treated plates, • 4. C=A′/B, which is then converted as the percentage of infection after treatment, compared to non-treated sample, and subsequently as the infection percentage. For instance, a value of 100 in Table IV here below means that, after treatment, the signal attributed to GFP fluorescence is abolished, which is correlated to the absence of infection. • 5. C′=100−C
This value corresponds to the inhibition's percentage.
The following Table IV encompasses said C′ value for some compounds, as calculated above with a mean of 2 experiments, and corresponding standard deviation.
Some values were originally above 100. In these cases, the value has been lowered to 100. This means that some molecules also have an impact on the viability of the cells. In other words, the A value may be lower than the background noise.
Moreover, for each measure, the test was performed with Ribavirin as control. The value of the inhibition percentage was checked, giving 100%.

In the next experiment the test system is RSV A2. Nature of the experiment: RSV inhibition (cytopathic effect inhibition) using Viral ToxGlo assay in HEp-2 cells. Particulars: human respiratory syncytial virus, RSV A2, MOI 0.5, HEp-2 cells, 72 h p.i. The experiment is classed as cell-based. The procedure, abridged:
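HEp-2 cells in EMEM with 2% FBS were infected with RSV A2 at MOI 0.5 immediately after compound (≤1% DMSO) and incubated 72 h at 37 °C. Viral ToxGlo luminescence gave % cytopathic effect inhibition versus virus control, plus cytotoxicity versus cell control; EC50 derived from dose-response.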

In another experiment the test system is DENV-2 strain 16681. Put plainly: DENV-2 inhibition (cytopathic effect inhibition) using Viral ToxGlo assay in A549 cells. The experiment is classed as cell-based, Dengue 2 virus. Particulars: Dengue virus, DENV2, 120 h, compounds at 10 μM, MOI 0.5, 5 days p.i., read-out: % DENV-2 Inhibition Mean (n = 3). On the procedure: Protocol for Screening Antiviral Compounds for DENV-2 Inhibition and Cytotoxicity Using Viral ToxGlo Assay
A549 cells were maintained in Dulbecco's Modified Eagle Medium (DMEM) supplemented with 10% fetal bovine serum, 100 U/ml penicillin and 100 μg/ml streptomycin. For the purposes of the screening assay they were grown to 90% confluency, trypsinized and recovered. The trypsin was neutralised with cell culture media and cells were centrifuged at 150×g for 5 minutes before discarding the supernatant and resuspending cell pellet in assay media (DMEM supplemented with 2% fetal bovine serum and 100 U/ml penicillin and 100 μg/ml streptomycin). The cells were seeded into 96-well white clear-bottomed cell culture plates at a density of 1.0×10^4 cells/well in 50 μl. For the media/background control column assay media only was added. Cell plates were placed in a humid chamber and incubated overnight at 37° C./5% CO2. After overnight incubation cells were checked for confluency and healthy appearance.
Test compounds were prepared at a final concentration of 10 μM in a maximum DMSO concentration of 1% (final assay concentration maximal 0.1% DMSO) and added to the cell plates in volumes of 10 μl. For cell control and virus control wells the test article solvent only was added. As a positive inhibition control, 7-Deaza-2′-C-methyladenosine was added at 100 μM in 3 wells. Virus (DENV-2 strain 16681) or assay media for cytotoxicity test wells and media/cell control wells was added immediately after test articles at an MOI of 0.5, 40 for 96 well plates respectively. Virus suspension was prepared by thawing DENV-2 frozen stocks and diluting to the required concentration of plaque forming units in assay media.
Cell plates were further incubated inside a humid chamber for 5 days p.i at 37° C./5% CO2. After the incubation period cells were observed under the microscope to check for characteristic cytopathic effect in virus control wells and healthy cells in the cell control wells. After plates were adjusted to room temperature 20 μl Viral ToxGlo (Promega) was added to each well of the 96-well cell plates. Plates were incubated at room temperature for 5 minutes before measuring the luminescence on a spectrophotometer (Envision, PerkinElmer).
DENV-2 inhibition was calculated as percentage of cytopathic effect inhibition relative to the virus control and cytotoxicity as percentage of cell survival relative to cell control wells.
On the technique in general: Cytopathic effects are the visible damage that an infection or toxin causes in cultured cells.

`O=C(NCCC1CCCC1)c1cccc(Nc2ccc(OCc3ccccn3)cc2)c1` [Compound 36, N-(2-cyclopentylethyl)-3-((4-(pyridin-2-ylmethoxy)phenyl)amino)benzamide]: the inhibition at 1 µM in experiment [1] is 99%. Moreover, in the experiment with RSV A2, the EC50 came to 0.232 µM.
On to `CC(C)CCNC(=O)c1cccc(Nc2ccc(OCc3ccccn3)cc2)c1` [Compound 37, N-isopentyl-3-((4-(pyridin-2-ylmethoxy)phenyl)amino)benzamide], for which the inhibition at 1 µM in experiment [1] came to 100%.
With `Cc1cc(OCc2ccccn2)ccc1Nc1cccc(C(=O)NCCC2CCCC2)c1` [Compound 39, N-(2-cyclopentylethyl)-3-((2-methyl-4-(pyridin-2-ylmethoxy)phenyl)amino)benzamide], the inhibition at 1 µM in experiment [1] is 98%. In addition, the EC50 with RSV A2 is 0.185 µM.
Turning to `Cc1cc(Nc2cccc(C(=O)NCCC3CCCC3)c2)ccc1OCc1ccccn1` [Compound 40, N-(2-cyclopentylethyl)-3-((3-methyl-4-(pyridin-2-ylmethoxy)phenyl)amino)benzamide], in experiment [1], the inhibition at 1 µM was 99%. In addition, the inhibition at 10 µM in the experiment with DENV-2 strain 16681 came to 71%.
Turning to `O=C(NCCC1CCCC1)c1cccc(Nc2ccc(OCc3ccccn3)nc2)c1` [Compound 41, N-(2-cyclopentylethyl)-3-((6-(pyridin-2-ylmethoxy)pyridin-3-yl)amino)benzamide], in experiment [1], the inhibition at 1 µM turned out to be 99%.
For the compound `COc1cc(Nc2cccc(C(=O)NCCC3CCCC3)c2)ccc1OCc1ccccn1` [Compound 43, N-(2-cyclopentylethyl)-3-((3-methoxy-4-(pyridin-2-ylmethoxy)phenyl)amino)benzamide], in experiment [1], the inhibition at 1 µM stood at 100%. Besides, the inhibition at 10 µM in the experiment with DENV-2 strain 16681 came to 71%.
Consider `Cc1cc(OCc2ccccn2)ccc1Nc1cccc(C(=O)NCCC2CCCCC2)c1` [Compound 47, N-(2-cyclohexylethyl)-3-((2-methyl-4-(pyridin-2-ylmethoxy)phenyl)amino)benzamide], for which, in experiment [1], the inhibition at 1 µM came out at 96%. Also, the EC50 in the experiment with RSV A2 turned out to be 0.182 µM.
Take `O=C(NCCC1CCC1)c1cccc(Nc2ccc(OCc3ccccn3)cc2)c1` [Compound 48, N-(2-cyclobutylethyl)-3-((4-(pyridin-2-ylmethoxy)phenyl)amino)benzamide]: the inhibition at 1 µM in experiment [1] was determined as 98%. In addition, the inhibition at 10 µM in the experiment with DENV-2 strain 16681 came out at 110%.
For the compound `O=C(NCCC1CC1)c1cccc(Nc2ccc(OCc3ccccn3)cc2)c1` [Compound 49, N-(2-cyclopropylethyl)-3-((4-(pyridin-2-ylmethoxy)phenyl)amino)benzamide], the inhibition at 1 µM in experiment [1] was found to be 98%. For the same compound, the inhibition at 10 µM in the experiment with DENV-2 strain 16681 was 111%.
Turning to `O=C(NCCC1CCCC1)c1cccc(Nc2ccc(OCc3ccccc3F)cc2)c1` [Compound 50, N-(2-cyclopentylethyl)-3-((4-((2-fluorobenzyl)oxy)phenyl)amino)benzamide], in experiment [1], the inhibition at 1 µM stood at 100%.
On to `N#Cc1ccccc1COc1ccc(Nc2cccc(C(=O)NCCC3CCCC3)c2)cc1` [Compound 51, 3-((4-((2-cyanobenzyl)oxy)phenyl)amino)-N-(2-cyclopentylethyl)benzamide], for which, in experiment [1], the inhibition at 1 µM was 100%.
`O=C(NCCC1CCCC1)c1cccc(Nc2ccc(OCc3ccccc3)cc2)c1` [Compound 52, 3-((4-(benzyloxy)phenyl)amino)-N-(2-cyclopentylethyl)benzamide]: the inhibition at 1 µM in experiment [1] came out at 99%.
For `O=C(NCCC1CCCC1)c1cccc(Nc2ccc(OCc3ccccn3)c(O)c2)c1` [Compound 53, N-(2-cyclopentylethyl)-3-((3-hydroxy-4-(pyridin-2-ylmethoxy)phenyl)amino)benzamide], in experiment [1], the IC50 was in the range of 0.001 to 0.4 µM.
Consider `Cc1cc(OCc2ccccn2)ccc1Nc1cccc(C(=O)NCCC(C)C)c1` [Compound 54, N-isopentyl-3-((2-methyl-4-(pyridin-2-ylmethoxy)phenyl)amino)benzamide], for which the IC50 in experiment [1] was in the range of 0.001 to 0.4 µM. The EC50 with RSV A2 worked out at 0.177 µM.
Regarding `CCc1cc(OCc2ccccn2)ccc1Nc1cccc(C(=O)NCCC(C)C)c1` [Compound 57, 3-((2-ethyl-4-(pyridin-2-ylmethoxy)phenyl)amino)-N-isopentylbenzamide], the IC50 in experiment [1] lay within 0.001 to 0.4 µM. Further, in the experiment on RSV A2, the EC50 is 0.026 µM.
`CCc1cc(OCc2ccccn2)ccc1Nc1cccc(C(=O)NCCC2CCCC2)c1` [Compound 58, N-(2-cyclopentylethyl)-3-((2-ethyl-4-(pyridin-2-ylmethoxy)phenyl)amino)benzamide]: the IC50 in experiment [1] lay within 0.001 to 0.4 µM.
For `Cc1cc(OCc2ccccn2)ccc1Nc1cccc(C(=O)NCCC2CC(F)(F)C2)c1` [Compound 70, N-(2-(3,3-difluorocyclobutyl)ethyl)-3-((2-methyl-4-(pyridin-2-ylmethoxy)phenyl)amino)benzamide], the IC50 in experiment [1] is 0.001 to 0.4 µM. In the experiment with RSV A2, the EC50 came out at 0.66 µM.
Turning to `Cc1cc(OCc2ccccn2)ccc1Nc1cccc(C(=O)NC2CCCC2)c1` [Compound 71, N-cyclopentyl-3-((2-methyl-4-(pyridin-2-ylmethoxy)phenyl)amino)benzamide], the IC50 in experiment [1] was 0.001 to 0.4 µM. Besides, in the experiment with RSV A2, the EC50 is 0.185 µM.
Turning to `c1ccc(COc2ccc(Nc3cccc(OCCCC4CCCC4)c3)cc2)nc1` [Compound 73, 3-(3-cyclopentylpropoxy)-N-(4-(pyridin-2-ylmethoxy)phenyl)aniline], the inhibition at 1 µM in experiment [1] turned out to be 100%.
